Test results taken from the NIST ThermoML archive (doi:10.1016/j.jct.2017.05.028).

Assay: wn = mass fraction of the nth substance listed
Conditions: 101 kPa, Liquid, digital holographic interferometry

**Q.** For `CCCCO` [butan-1-ol] + CCCCCCC, which binary diffusion coefficient (288.15 K, w1 = 0.05) is on record?
**A.** Its binary diffusion coefficient is 1.86e-09 m2/s.

**Q.** What about the binary diffusion coefficient (288.15 K, w1 = 0.15) of the same compound?
**A.** The binary diffusion coefficient was 1.39e-09 m2/s.

**Q.** What about the binary diffusion coefficient (288.15 K, w1 = 0.25) of the same compound?
**A.** Its binary diffusion coefficient is 1.04e-09 m2/s.

**Q.** And the binary diffusion coefficient (288.15 K, w1 = 0.35)?
**A.** Its binary diffusion coefficient is 8.03e-10 m2/s.

**Q.** And the binary diffusion coefficient (288.15 K, w1 = 0.45)?
**A.** Its binary diffusion coefficient is 6.87e-10 m2/s.

**Q.** What about the binary diffusion coefficient (288.15 K, w1 = 0.55) of the same compound?
**A.** Its binary diffusion coefficient is 6.25e-10 m2/s.

**Q.** And the binary diffusion coefficient (288.15 K, w1 = 0.65)?
**A.** The binary diffusion coefficient was 6.28e-10 m2/s.

**Q.** What about the binary diffusion coefficient (288.15 K, w1 = 0.75) of the same compound?
**A.** The binary diffusion coefficient was 6.75e-10 m2/s.

**Q.** And the binary diffusion coefficient (288.15 K, w1 = 0.85)?
**A.** The binary diffusion coefficient was 7.03e-10 m2/s.

**Q.** What about the binary diffusion coefficient (288.15 K, w1 = 0.95) of the same compound?
**A.** The binary diffusion coefficient was 7.54e-10 m2/s.

**Q.** And the binary diffusion coefficient (298.15 K, w1 = 0.05)?
**A.** Its binary diffusion coefficient is 2.09e-09 m2/s.

**Q.** What about the binary diffusion coefficient (298.15 K, w1 = 0.15) of the same compound?
**A.** Its binary diffusion coefficient is 1.63e-09 m2/s.

**Q.** And the binary diffusion coefficient (298.15 K, w1 = 0.25)?
**A.** Its binary diffusion coefficient is 1.26e-09 m2/s.

**Q.** And the binary diffusion coefficient (298.15 K, w1 = 0.35)?
**A.** The binary diffusion coefficient was 1.06e-09 m2/s.

**Q.** What about the binary diffusion coefficient (298.15 K, w1 = 0.45) of the same compound?
**A.** Its binary diffusion coefficient is 9.24e-10 m2/s.

**Q.** And the binary diffusion coefficient (298.15 K, w1 = 0.55)?
**A.** The binary diffusion coefficient was 8.84e-10 m2/s.

**Q.** And the binary diffusion coefficient (298.15 K, w1 = 0.65)?
**A.** The binary diffusion coefficient was 8.71e-10 m2/s.

**Q.** And the binary diffusion coefficient (298.15 K, w1 = 0.75)?
**A.** The binary diffusion coefficient was 9.06e-10 m2/s.

**Q.** And the binary diffusion coefficient (298.15 K, w1 = 0.85)?
**A.** The binary diffusion coefficient was 9.54e-10 m2/s.

**Q.** What about the binary diffusion coefficient (298.15 K, w1 = 0.95) of the same compound?
**A.** Its binary diffusion coefficient is 1.01e-09 m2/s.

**Q.** And the binary diffusion coefficient (308.15 K, w1 = 0.05)?
**A.** The binary diffusion coefficient was 2.4e-09 m2/s.

**Q.** And the binary diffusion coefficient (308.15 K, w1 = 0.15)?
**A.** Its binary diffusion coefficient is 1.92e-09 m2/s.

**Q.** And the binary diffusion coefficient (308.15 K, w1 = 0.25)?
**A.** Its binary diffusion coefficient is 1.57e-09 m2/s.

**Q.** What about the binary diffusion coefficient (308.15 K, w1 = 0.35) of the same compound?
**A.** The binary diffusion coefficient was 1.33e-09 m2/s.

**Q.** What about the binary diffusion coefficient (308.15 K, w1 = 0.45) of the same compound?
**A.** The binary diffusion coefficient was 1.19e-09 m2/s.

**Q.** What about the binary diffusion coefficient (308.15 K, w1 = 0.55) of the same compound?
**A.** Its binary diffusion coefficient is 1.13e-09 m2/s.

**Q.** What about the binary diffusion coefficient (308.15 K, w1 = 0.65) of the same compound?
**A.** The binary diffusion coefficient was 1.11e-09 m2/s.

**Q.** What about the binary diffusion coefficient (308.15 K, w1 = 0.75) of the same compound?
**A.** Its binary diffusion coefficient is 1.13e-09 m2/s.

**Q.** What about the binary diffusion coefficient (308.15 K, w1 = 0.85) of the same compound?
**A.** Its binary diffusion coefficient is 1.2e-09 m2/s.

**Q.** And the binary diffusion coefficient (308.15 K, w1 = 0.95)?
**A.** Its binary diffusion coefficient is 1.26e-09 m2/s.

**Q.** What about the binary diffusion coefficient (318.15 K, w1 = 0.05) of the same compound?
**A.** Its binary diffusion coefficient is 2.73e-09 m2/s.

**Q.** And the binary diffusion coefficient (318.15 K, w1 = 0.15)?
**A.** The binary diffusion coefficient was 2.24e-09 m2/s.

**Q.** And the binary diffusion coefficient (318.15 K, w1 = 0.25)?
**A.** The binary diffusion coefficient was 1.87e-09 m2/s.

**Q.** And the binary diffusion coefficient (318.15 K, w1 = 0.35)?
**A.** The binary diffusion coefficient was 1.6e-09 m2/s.

**Q.** What about the binary diffusion coefficient (318.15 K, w1 = 0.45) of the same compound?
**A.** Its binary diffusion coefficient is 1.49e-09 m2/s.

**Q.** What about the binary diffusion coefficient (318.15 K, w1 = 0.55) of the same compound?
**A.** The binary diffusion coefficient was 1.42e-09 m2/s.

**Q.** And the binary diffusion coefficient (318.15 K, w1 = 0.65)?
**A.** Its binary diffusion coefficient is 1.4e-09 m2/s.

**Q.** What about the binary diffusion coefficient (318.15 K, w1 = 0.75) of the same compound?
**A.** Its binary diffusion coefficient is 1.44e-09 m2/s.

**Q.** And the binary diffusion coefficient (318.15 K, w1 = 0.85)?
**A.** The binary diffusion coefficient was 1.48e-09 m2/s.

**Q.** What about the binary diffusion coefficient (318.15 K, w1 = 0.95) of the same compound?
**A.** The binary diffusion coefficient was 1.54e-09 m2/s.

**Q.** For `CCCCCO` [pentan-1-ol] + CCCCCCC, which binary diffusion coefficient (288.15 K, w1 = 0.05) is on record?
**A.** Its binary diffusion coefficient is 1.65e-09 m2/s.

**Q.** And the binary diffusion coefficient (288.15 K, w1 = 0.15)?
**A.** The binary diffusion coefficient was 1.19e-09 m2/s.

**Q.** What about the binary diffusion coefficient (288.15 K, w1 = 0.25) of the same compound?
**A.** Its binary diffusion coefficient is 8.88e-10 m2/s.

**Q.** And the binary diffusion coefficient (288.15 K, w1 = 0.35)?
**A.** Its binary diffusion coefficient is 7.12e-10 m2/s.

**Q.** And the binary diffusion coefficient (288.15 K, w1 = 0.45)?
**A.** The binary diffusion coefficient was 5.95e-10 m2/s.

**Q.** What about the binary diffusion coefficient (288.15 K, w1 = 0.55) of the same compound?
**A.** Its binary diffusion coefficient is 5.43e-10 m2/s.

**Q.** What about the binary diffusion coefficient (288.15 K, w1 = 0.65) of the same compound?
**A.** Its binary diffusion coefficient is 5.49e-10 m2/s.

**Q.** And the binary diffusion coefficient (288.15 K, w1 = 0.75)?
**A.** The binary diffusion coefficient was 5.77e-10 m2/s.

**Q.** What about the binary diffusion coefficient (288.15 K, w1 = 0.85) of the same compound?
**A.** Its binary diffusion coefficient is 6.09e-10 m2/s.

**Q.** And the binary diffusion coefficient (288.15 K, w1 = 0.95)?
**A.** Its binary diffusion coefficient is 6.5e-10 m2/s.

**Q.** What about the binary diffusion coefficient (298.15 K, w1 = 0.05) of the same compound?
**A.** The binary diffusion coefficient was 1.88e-09 m2/s.

**Q.** And the binary diffusion coefficient (298.15 K, w1 = 0.15)?
**A.** Its binary diffusion coefficient is 1.43e-09 m2/s.

**Q.** And the binary diffusion coefficient (298.15 K, w1 = 0.25)?
**A.** Its binary diffusion coefficient is 1.13e-09 m2/s.

**Q.** What about the binary diffusion coefficient (298.15 K, w1 = 0.35) of the same compound?
**A.** Its binary diffusion coefficient is 9.36e-10 m2/s.

**Q.** What about the binary diffusion coefficient (298.15 K, w1 = 0.45) of the same compound?
**A.** Its binary diffusion coefficient is 8.38e-10 m2/s.

**Q.** What about the binary diffusion coefficient (298.15 K, w1 = 0.55) of the same compound?
**A.** The binary diffusion coefficient was 7.8e-10 m2/s.

**Q.** What about the binary diffusion coefficient (298.15 K, w1 = 0.65) of the same compound?
**A.** Its binary diffusion coefficient is 7.86e-10 m2/s.

**Q.** What about the binary diffusion coefficient (298.15 K, w1 = 0.75) of the same compound?
**A.** The binary diffusion coefficient was 8.09e-10 m2/s.

**Q.** What about the binary diffusion coefficient (298.15 K, w1 = 0.85) of the same compound?
**A.** Its binary diffusion coefficient is 8.4e-10 m2/s.

**Q.** What about the binary diffusion coefficient (298.15 K, w1 = 0.95) of the same compound?
**A.** Its binary diffusion coefficient is 8.76e-10 m2/s.

**Q.** What about the binary diffusion coefficient (308.15 K, w1 = 0.05) of the same compound?
**A.** The binary diffusion coefficient was 2.11e-09 m2/s.

**Q.** And the binary diffusion coefficient (308.15 K, w1 = 0.15)?
**A.** Its binary diffusion coefficient is 1.69e-09 m2/s.

**Q.** And the binary diffusion coefficient (308.15 K, w1 = 0.25)?
**A.** Its binary diffusion coefficient is 1.38e-09 m2/s.

**Q.** What about the binary diffusion coefficient (308.15 K, w1 = 0.35) of the same compound?
**A.** Its binary diffusion coefficient is 1.18e-09 m2/s.

**Q.** What about the binary diffusion coefficient (308.15 K, w1 = 0.45) of the same compound?
**A.** The binary diffusion coefficient was 1.07e-09 m2/s.

**Q.** And the binary diffusion coefficient (308.15 K, w1 = 0.55)?
**A.** Its binary diffusion coefficient is 1.02e-09 m2/s.

**Q.** And the binary diffusion coefficient (308.15 K, w1 = 0.65)?
**A.** Its binary diffusion coefficient is 9.99e-10 m2/s.

**Q.** And the binary diffusion coefficient (308.15 K, w1 = 0.75)?
**A.** Its binary diffusion coefficient is 1.04e-09 m2/s.

**Q.** What about the binary diffusion coefficient (308.15 K, w1 = 0.85) of the same compound?
**A.** The binary diffusion coefficient was 1.07e-09 m2/s.

**Q.** What about the binary diffusion coefficient (308.15 K, w1 = 0.95) of the same compound?
**A.** Its binary diffusion coefficient is 1.12e-09 m2/s.

**Q.** What about the binary diffusion coefficient (318.15 K, w1 = 0.05) of the same compound?
**A.** Its binary diffusion coefficient is 2.42e-09 m2/s.

**Q.** What about the binary diffusion coefficient (318.15 K, w1 = 0.15) of the same compound?
**A.** Its binary diffusion coefficient is 1.96e-09 m2/s.

**Q.** And the binary diffusion coefficient (318.15 K, w1 = 0.25)?
**A.** Its binary diffusion coefficient is 1.64e-09 m2/s.

**Q.** And the binary diffusion coefficient (318.15 K, w1 = 0.35)?
**A.** The binary diffusion coefficient was 1.42e-09 m2/s.

**Q.** And the binary diffusion coefficient (318.15 K, w1 = 0.45)?
**A.** Its binary diffusion coefficient is 1.33e-09 m2/s.

**Q.** What about the binary diffusion coefficient (318.15 K, w1 = 0.55) of the same compound?
**A.** The binary diffusion coefficient was 1.29e-09 m2/s.

**Q.** What about the binary diffusion coefficient (318.15 K, w1 = 0.65) of the same compound?
**A.** Its binary diffusion coefficient is 1.28e-09 m2/s.

**Q.** What about the binary diffusion coefficient (318.15 K, w1 = 0.75) of the same compound?
**A.** The binary diffusion coefficient was 1.31e-09 m2/s.

**Q.** What about the binary diffusion coefficient (318.15 K, w1 = 0.85) of the same compound?
**A.** Its binary diffusion coefficient is 1.36e-09 m2/s.

**Q.** And the binary diffusion coefficient (318.15 K, w1 = 0.95)?
**A.** Its binary diffusion coefficient is 1.38e-09 m2/s.
